IC50 and melting point data for 26 molecules are collected here from patent publication US7335674B2, “Benzothiazole-4,7-diones and benzoxazole-4,7-diones with substituents in position 5 or 6 and method for production thereof” (Societe de Conseils de Recherches et d'Applications …, priority 2003, dated 2008).

Series [1] deals with Mia-Paca2 (human pancreas cancer cells). Kind of series: Antiproliferative activity, WST1 colorimetric test, Mia-PaCa2. Type of series: cell-based. Conditions: MIA PaCa-2, Mia-Paca2, treated 96 hours, up to 10 μM, read-out: IC50 on the cell proliferation of the Mia-Paca2 lines. How it is done: (§1) iii) Characterization of the Antiproliferative Activity:
(§2) By way of example, the effect of a treatment on two human cell lines Mia-Paca2 and DU145 by the compounds of the examples described previously will be studied. The cell lines DU145 (human prostate cancer cells) and Mia-PaCa2 (human pancreas cancer cells) were acquired from the American Tissue Culture Collection (Rockville, Md., USA). The cells placed in 80 μl of Dulbecco's Modified Eagle's medium (Gibco-Brl, Cergy-Pontoise, France) completed with 10% foetal calf serum inactivated by heating (Gibco-Brl, Cergy-Pontoise, France), 50,000 units/l of penicillin and 50 mg/l of streptomycin (Gibco-Brl, 10378-057, Cergy-Pontoise, France), and 2 mM of glutamine (Gibco-Brl, Cergy-Pontoise, France) were seeded on a 96-well plate on day 0. The cells were treated on day 1 for 96 hours with increasing concentrations of each of the compounds to be tested up to 10 μM. At the end of this period, quantification of cell proliferation is evaluated by a colorimetric test based on the cleavage of the tetrazolium salt WST1 by the mitochondrial dehydrogenases in viable cells leading to the formation of formazan (Boehringer Mannheim, Meylan, France). These tests are carried out in duplicate with 8 determinations per concentration tested. For each compound to be tested, the values included in the linear part of the sigmoid were retained for a linear regression analysis and used to estimate the inhibitory concentration IC50. The products are solubilized in dimethylsulphoxide (DMSO) at 10^−2 M and finally used in culture with 0.1% DMSO.
For orientation: Formazan colour is commonly taken as a measure of viable cells.

Series [2] concerns DU145 (human prostate cancer cells). Description: Antiproliferative activity, WST1 colorimetric test, DU145. Type of series: cell-based. Conditions: DU-145, treated 96 hours, up to 10 μM, read-out: IC50 on the cell proliferation of the DU-145 lines. As for the experimental part: as §1, §2

For orientation: melting point means the temperature, or range, at which the solid turns liquid. Turning to `CN(C)CCNC1=CC(=O)c2nc(-c3ccc(F)cc3)sc2C1=O` [Example 8, 6-{[2-(dimethylamino)ethyl]amino}-2-(4-fluorophenyl)-1,3-benzothiazole4,7-dione], the melting point is 246 to 247 °C. In addition, in series [1], the IC50 was at most 10 µM. The IC50 in series [2] is at most 10 µM.

For `CN(C)CCNC1=CC(=O)c2nc(-c3cccc4ccccc34)sc2C1=O` [Example 9, 6-{[2-(dimethylamino)ethyl]amino}-2-(1-naphthyl)-1,3-benzothiazole-4,7-dione], the melting point lay in the range of 172 to 173 °C. Also, the IC50 in series [1] was at most 10 µM. In addition, the IC50 in series [2] was at most 10 µM.

In turn, `CN(C)CCNC1=CC(=O)c2nc(-c3ccc(-c4ccccc4)cc3)sc2C1=O` [Example 10, 2-(1,1′-biphenyl-4-yl)-6-{[2-(dimethylamino)ethyl]amino}-1,3-benzothiazole-4,7-dione] displayed a melting point of 194 to 195 °C. In addition, in series [1], the IC50 was at most 10 µM. The IC50 in series [2] was at most 10 µM.

Consider `CCCCc1ccc(-c2nc3c(s2)C(=O)C(NCCN(C)C)=CC3=O)cc1` [Example 11, 2-(4-butylphenyl)-6-{[2-(dimethylamino)ethyl]amino}-1,3-benzothiazole-4,7-dione], for which the melting point fell in the range of 126 to 127 °C. In addition, the IC50 in series [1] is at most 10 µM. Also, the IC50 in series [2] is at most 10 µM.

`CN(C)CCNC1=CC(=O)c2nc(-c3ccc4ccccc4c3)sc2C1=O` [Example 13, 6-{[2-(dimethylamino)ethyl]amino}-2-(2-naphthyl)-1,3-benzothiazole-4,7-dione] registered a melting point of 167 to 168 °C. Also, the IC50 in series [1] was at most 10 µM. Also, the IC50 in series [2] was at most 10 µM.

Turning to `CN(C)CCNC1=CC(=O)c2oc(-c3cc(F)ccc3F)nc2C1=O` [Example 15, 2-(2,5-difluorophenyl)-5-{[2-(dimethylamino)ethyl]amino}-1,3-benzoxazole-4,7-dione], the melting point fell in the range of 181 to 182 °C. Moreover, in series [1], the IC50 was at most 10 µM. In addition, the IC50 in series [2] is at most 10 µM.

The molecule `CN(C)CCNC1=CC(=O)c2oc(-c3ccccc3Br)nc2C1=O` [Example 16, 2-(2-bromophenyl)-5-{[2-(dimethylamino)ethyl]amino}-1,3-benzoxazole4,7-dione] had a melting point of 153 to 154 °C. Besides, the IC50 in series [1] is at most 10 µM. Moreover, the IC50 in series [2] is at most 10 µM.

`CN(C)CCNC1=CC(=O)c2oc(-c3cccc(Br)c3)nc2C1=O` [Example 17, 2-(3-bromophenyl)-5-{[2-(dimethylamino)ethyl]amino}-1,3-benzoxazole-4,7-dione]: the melting point was in the range of 187 to 188 °C. In series [1], the IC50 is at most 10 µM. In series [2], the IC50 was at most 10 µM.

`CN(C)CCNC1=CC(=O)c2oc(-c3ccc(F)cc3)nc2C1=O` [Example 18, 5-{[2-(dimethylamino)ethyl]amino}-2-(4-fluorophenyl)-1,3-benzoxazole-4,7-dione] gave a melting point of 181 to 182 °C. Moreover, the IC50 in series [1] was at most 10 µM. Also, the IC50 in series [2] was at most 10 µM.

`CN(C)CCNC1=CC(=O)c2oc(-c3cc(F)cc(F)c3)nc2C1=O` [Example 19, 2-(3,5-difluorophenyl)-5-{[2-(dimethylamino)ethyl]amino}-1,3-benzoxazole-4,7-dione] returned a melting point of 187 to 188 °C. Besides, the IC50 in series [1] is at most 10 µM. For the same molecule, the IC50 in series [2] is at most 10 µM.

Consider `CN(C)CCNC1=CC(=O)c2oc(-c3cccc(F)c3F)nc2C1=O` [Example 20, 2-(2,3-difluorophenyl)-5-{[2-(dimethylamino)ethyl]amino}-1,3-benzoxazole-4,7-dione], for which the melting point is 178 to 179 °C. In series [1], the IC50 is at most 10 µM. For the same molecule, in series [2], the IC50 was at most 10 µM.

`CCc1ccc(-c2nc3c(o2)C(=O)C=C(NCCN(C)C)C3=O)cc1` [Example 22, 5-{[2-(dimethylamino)ethyl]amino}-2-(4-ethylphenyl)-1,3-benzoxazole4,7-dione] displayed a melting point of 169 to 170 °C. In addition, the IC50 in series [1] is at most 10 µM. Moreover, in series [2], the IC50 was at most 10 µM.

Consider `CN(C)CCNC1=CC(=O)c2oc(Cc3ccccc3)nc2C1=O` [Example 23, 2-benzyl-5-{[2-(dimethylamino)ethyl]amino}-1,3-benzoxazole-4,7-dione], for which the melting point was in the range of 135 to 136 °C. Moreover, in series [1], the IC50 was at most 10 µM. Also, in series [2], the IC50 was at most 10 µM.

With `O=C1C(NCCN2CCCC2)=CC(=O)c2oc(-c3cccc(Br)c3)nc21` [Example 24, 2-(3-bromophenyl)-5-[(2-pyrrolidin-1-ylethyl)amino]1,3-benzoxazole4,7-dione], the melting point was in the range of 169 to 170 °C. Further, the IC50 in series [1] is at most 10 µM. The IC50 in series [2] is at most 10 µM.

Regarding `O=C1C(NCCN2CCCC2)=CC(=O)c2oc(-c3cc(F)cc(F)c3)nc21` [Example 25, 2-(3,5-difluorophenyl)-5-[(2-pyrrolidin-1-ylethyl)amino]-1,3-benzoxazole-4,7-dione], the melting point is 182 to 183 °C. Besides, the IC50 in series [1] is at most 10 µM. In series [2], the IC50 is at most 10 µM.

Molecule `O=C1C(NCCN2CCCC2)=CC(=O)c2oc(-c3cc(F)c(F)c(F)c3)nc21` [Example 26, 5-[(2-pyrrolidin-1-ylethyl)amino]-2-(3,4,5-trifluorophenyl)-1,3-benzoxazole-4,7-dione] gave a melting point of 193 to 194 °C. In addition, the IC50 in series [1] is at most 10 µM. For the same molecule, in series [2], the IC50 is at most 10 µM.

As for `CN(C)CCNC1=CC(=O)c2nc(-c3ccccc3Br)oc2C1=O` [Example 28, 2-(2-bromophenyl)-6-{[2-(dimethylamino)ethyl]amino}-1,3-benzoxazole4,7-dione], the melting point lay within 147 to 148 °C. The IC50 in series [1] is at most 10 µM. For the same molecule, in series [2], the IC50 is at most 10 µM.

`CN(C)CCNC1=CC(=O)c2nc(-c3cccc(Br)c3)oc2C1=O` [Example 29, 2-(3-bromophenyl)-6-{[2-(dimethylamino)ethyl]amino}-1,3-benzoxazole4,7-dione] returned a melting point of 174 to 175 °C. Further, in series [1], the IC50 was at most 10 µM. For the same molecule, the IC50 in series [2] was at most 10 µM.

Consider `CN(C)CCNC1=CC(=O)c2nc(-c3cccc(Cl)c3)oc2C1=O` [Example 30, 2-(3-chlorophenyl)-6-{[2-(dimethylamino)ethyl]amino}-1,3-benzoxazole4,7-dione], for which the melting point is 174 to 175 °C. Further, the IC50 in series [1] was at most 10 µM. For the same molecule, the IC50 in series [2] is at most 10 µM.

Molecule `CN(C)CCNC1=CC(=O)c2nc(-c3ccc(Br)cc3)oc2C1=O` [Example 31, 2-(4-bromophenyl)-6-{[2-(dimethylamino)ethyl]amino}-1,3-benzoxazole-4,7-dione] returned a melting point of 181 to 182 °C. For the same molecule, in series [1], the IC50 was at most 10 µM. Moreover, the IC50 in series [2] is at most 10 µM.

Molecule `CN(C)CCNC1=CC(=O)c2nc(-c3cc(Br)cc(Br)c3)oc2C1=O` [Example 32, 2-(3,5-dibromophenyl)-6-{[2-(dimethylamino)ethyl]amino}-1,3-benzoxazole-4,7-dione] gave a melting point of 206 to 207 °C. The IC50 in series [1] was at most 10 µM. For the same molecule, the IC50 in series [2] is at most 10 µM.

Take `CN(C)CCNC1=CC(=O)c2nc(-c3ccc(F)cc3)oc2C1=O` [Example 33, 6-{[2-(dimethylamino)ethyl]amino}-2-(4-fluorophenyl)-1,3-benzoxazole4,7-dione]: the melting point lay within 169 to 170 °C. Besides, in series [1], the IC50 is at most 10 µM. Moreover, the IC50 in series [2] is at most 10 µM.

`CN(C)CCNC1=CC(=O)c2nc(-c3cc(F)cc(F)c3)oc2C1=O` [Example 34, 2-(3,5-difluorophenyl)-6-{[2-(dimethylamino)ethyl]amino}-1,3-benzoxazole-4,7-dione] returned a melting point of 176 to 177 °C. Further, the IC50 in series [1] was at most 10 µM. The IC50 in series [2] was at most 10 µM.

Turning to `CN(C)CCNC1=CC(=O)c2nc(-c3cccc(F)c3F)oc2C1=O` [Example 35, 2-(2,3-difluorophenyl)-6-{[2-(dimethylamino)ethyl]amino}-1,3-benzoxazole-4,7-dione], the melting point fell in the range of 178 to 179 °C. Moreover, the IC50 in series [1] is at most 10 µM. Also, the IC50 in series [2] was at most 10 µM.

`CN(C)CCNC1=CC(=O)c2nc(-c3cc(F)c(F)c(F)c3)oc2C1=O` [Example 36, 6-{[2-(dimethylamino)ethyl]amino}-2-(3,4,5-trifluorophenyl)-1,3-benzoxazole4,7-dione] displayed a melting point of 188 to 189 °C. The IC50 in series [1] was at most 10 µM. Also, the IC50 in series [2] was at most 10 µM.

`CCCCCCc1nc2c(s1)C(=O)C(NCCN(C)C)=CC2=O` [Example 60, 6-{[2-(dimethylamino)ethyl]amino}-2-hexyl-1,3-benzothiazole-4,7-dione]: the IC50 in series [1] and in series [2] was at most 10 µM throughout.
